Assay results as given in patent publication US20100311729A1, “Substituted imidazopyridazines and pyrrolopyrimidines as lipid kinase inhibitors” (priority 2007, published 2010).

These compounds were tested against T1, PI3K alfa (Homo sapiens, UniProt P42336) (assay: PI3 kinase assay (Kinase-Glo luminescence), PI3K alfa). Conditions: read-out: IC50 (μm) PI3K-alfa.
T1 construct: for the p110-a subunit (with a deletion of the first 20 amino acids); His tag (C); made in house; host or cells: baculovirus; Tn5 (Trichoplusia ni) or TiniPro insect cells
T1 sequence (P42336 with tags, fused parts or gaps limits assumed): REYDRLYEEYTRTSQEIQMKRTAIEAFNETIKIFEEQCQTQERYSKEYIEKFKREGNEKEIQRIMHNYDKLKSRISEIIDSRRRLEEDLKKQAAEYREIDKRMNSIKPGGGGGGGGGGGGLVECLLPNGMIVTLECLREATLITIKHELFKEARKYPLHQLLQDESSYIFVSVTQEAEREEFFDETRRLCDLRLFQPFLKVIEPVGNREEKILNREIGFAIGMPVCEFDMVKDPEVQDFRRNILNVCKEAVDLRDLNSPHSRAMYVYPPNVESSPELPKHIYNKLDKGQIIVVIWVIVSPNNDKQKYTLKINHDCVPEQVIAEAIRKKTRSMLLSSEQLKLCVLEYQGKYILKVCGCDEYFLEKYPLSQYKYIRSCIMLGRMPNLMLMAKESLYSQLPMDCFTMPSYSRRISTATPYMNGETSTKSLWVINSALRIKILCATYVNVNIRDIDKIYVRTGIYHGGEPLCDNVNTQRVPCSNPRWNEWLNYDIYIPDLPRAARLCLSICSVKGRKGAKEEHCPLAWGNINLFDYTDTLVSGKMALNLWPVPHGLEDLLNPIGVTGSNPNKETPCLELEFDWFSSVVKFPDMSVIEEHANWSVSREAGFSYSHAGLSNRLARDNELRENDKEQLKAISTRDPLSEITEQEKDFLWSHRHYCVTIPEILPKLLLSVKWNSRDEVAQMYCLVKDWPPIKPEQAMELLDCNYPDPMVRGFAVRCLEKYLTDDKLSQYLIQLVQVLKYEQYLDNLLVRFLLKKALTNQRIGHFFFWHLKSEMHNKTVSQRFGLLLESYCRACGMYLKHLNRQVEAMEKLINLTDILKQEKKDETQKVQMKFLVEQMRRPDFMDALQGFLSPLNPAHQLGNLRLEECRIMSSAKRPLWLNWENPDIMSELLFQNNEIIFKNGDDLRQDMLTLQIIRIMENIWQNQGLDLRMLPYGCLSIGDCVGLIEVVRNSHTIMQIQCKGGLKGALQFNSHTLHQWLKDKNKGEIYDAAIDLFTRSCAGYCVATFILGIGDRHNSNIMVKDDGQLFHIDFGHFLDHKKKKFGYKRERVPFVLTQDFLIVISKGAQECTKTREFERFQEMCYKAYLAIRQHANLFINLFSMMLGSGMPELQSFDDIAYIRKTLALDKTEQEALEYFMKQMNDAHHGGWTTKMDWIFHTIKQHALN
Format: biochemical
Experimental: In a more preferred assay, the kinase reaction is performed in a final volume of 10 μL per well of a low volume non binding CORNING, 384 well black plate (Cat. No. #3676). The final concentrations of ATP and phosphatidyl inositol (PI) in the assay are 1 μM and 10 μg/mL respectively. The reaction is started by the addition of ATP.
The components of the assay are added per well as follows:
50 nL test compounds in 90% DMSO per well, in columns 1-20, 8 concentrations (1/3 and 1/3.33 serial dilution step) in single. • Low control: 50 nL of 90% DMSO in half the wells of columns 23-24 (0.45% in final). • High control: 50 nL of reference compound (e.g. compound of Example 7 in WO 2006/122806, incorporated by reference hereinin that regard) in the other half of columns 23-24 (2.5 μM in final). • Standard: 50 nL of reference compound as just mentioned diluted as the test compounds in columns 21-22 • 20 mL ‘buffer’ are prepared per assay: • 200 μL of 1M TRIS HCl pH7.5 (10 mM in final) • 60 μL of 1M MgCl2 (3 mM in final) • 500 μL of 2M NaCl (50 mM in final) • 100 μL of 10% CHAPS (0.05% in final) • 200 μL of 100 mM DTT (1 mM in final) • 18.94 mL of nanopure water • 10 mL ‘PI’ are prepared per assay: • 200 μL of 1 mg/ml L-alpha-Phosphatidylinositol (Liver Bovine, Avanti Polar Lipids Cat. No. 840042C MW=909.12) prepared in 3% OctylGlucoside (10 μg/ml in final) • 9.8 mL of ‘buffer’ • 10 mL ‘ATP’ are prepared per assay: • 6.7 μL of 3 mM stock of ATP giving a final concentration of 1 μM per well • 10 mL of ‘buffer’ • 2.5 mL of each PI3K construct are prepared per assay in ‘PI’ with the following final concentration : • 10 nM PI3K alfa B-1075 • 25 nM beta BV-949 • 10 nM delta BV-1060 • 150 nM gamma BV-950 • 5 μL of ‘PI/PI3K’ are added per well. • 5 μl ‘ATP’ are added per well to start the reaction. • The plates are then incubated at room temperature for 60 minutes (alfa, beta, delta) or 120 minutes (gamma). • The reaction is terminated by the addition of 10 μL Kinase-Glo (Promega Cat. No. #6714). • The assay plates are read after 10 minutes in Synergy 2 reader (BioTek, Vermont USA) with an integration time of 100 milliseconds and sensitivity set to 191. • Output : The High control is around 60'000 counts and the Low control is 30'000 or lower • This luminescence assay gives a useful Z′ ratio between 0.4 and 0.7
1050 is determined by a four parameter curve fitting routine that comes aloneg with “excel fit”. A 4 Parameter logistic equation is used to calculate IC50 values (IDBS XLfit) of the percentage inhibition of each compound at 8 concentrations (usually 10, 3.0, 1.0, 0.3, 0.1, 0.030, 0.010 and […]). Alternatively, IC50 values are calculated using idbsXLfit model 204, which is a 4 parameter logistic model.
Testing with the following kinases in the test system mentioned above, with the kinases given in the following tables, the following IC 50 data can be obtained: […]

SMILES	IC50 [nM]
Nc1ncc(-c2ccc3ncc(-c4cnc(N)c(C(F)(F)F)c4)n3n2)cc1C(F)(F)F [Example 6]	3
NC(=O)c1ccc(-c2ccc3ncc(-c4ccc(C(N)=O)cc4)n3n2)cc1 [Example 7, 4-[3-(4-Carbamoylphenyl)-imidazo[1,2-b]pyridazin-6-yl]-benzamide]	14
COc1ccccc1-c1ccc2ncc(-c3ccc(C(N)=O)cc3)n2n1 [Example 9, 4-[6-(2-Methoxy-phenyl)-imidazo[1,2-b]pyridazin-3-yl]-benzamide]	854
COc1cc(-c2ccc3ncc(-c4cnc(N)c(C(F)(F)F)c4)n3n2)ccc1OCCCNC(=O)OC(C)(C)C [Example 10, (3-{4-[3-(6-Amino-5-trifluoromethyl-pyridin-3-yl)-imidazo[1,2-b]pyridazin-6-yl]-2-methoxy-phenoxy}-propyl)-carbamic acid tert-butyl ester]	118
NC(=O)c1ccc(-c2ccc3ncc(-c4cnc(N)c(C(F)(F)F)c4)n3n2)cc1 [Example 11, 4-[3-(6-Amino-5-trifluoromethyl-pyridin-3-yl)-imidazo[1,2-b]pyridazin-6-yl]-benzamide]	372
CS(=O)(=O)c1ccc(-c2cnc3ccc(-c4cnc(N)c(C(F)(F)F)c4)nn23)cc1 [Example 18, 5-[3-(4-Methanesulfonyl-phenyl)-imidazo[1,2-b]pyridazin-6-yl]-3-trifluoro-methyl-pyridin-2-ylamine]	9.5
Nc1ncc(-c2ccc3ncc(-c4ccc(F)nc4)n3n2)cc1C(F)(F)F [Example 27, 5-[3-(6-Fluoro-pyridin-3-yl)-imidazo[1,2-b]pyridazin-6-yl]-3-trifluoromethyl-pyridin-2-ylamine]	1.4

Now from value to compound:

IC50 [nM]	SMILES
3	COc1ccc(-c2ccc3ncc(-c4ccc(OC)c(OC)c4)n3n2)cc1OC [Example 1, 3,6-Bis-(3,4-dimethoxy-phenyl)-imidazo[1,2-b]pyridazine]
1.64	COc1ccc(-c2ccc3ncc(-c4ccc(S(C)(=O)=O)cc4)n3n2)cc1OC [Example 5, 6-(3,4-Dimethoxy-phenyl)-3-(4-methanesulfonyl-phenyl)-imidazo[1,2-b]pyridazine]
6	CCOC(=O)c1cc(-c2ccc3ncc(-c4ccc(OC)c(OC)c4)n3n2)ccc1OC [Example 8, 5-[3-(3,4-Dimethoxy-phenyl)-imidazo[1,2-b]pyridazin-6-yl]-2-methoxy-benzoic acid ethyl ester]
39	COc1cc(-c2ccc3ncc(-c4cnc(N)c(C(F)(F)F)c4)n3n2)ccc1OCCCN [Example 14, 5-{6-[4-(3-Amino-propoxy)-3-methoxy-phenyl]-imidazo[1,2-b]pyridazin-3-yl}-3-trifluoromethyl-pyridin-2-ylamine]
135	COc1ccc(-c2cnc3ccc(-c4ccc(OCCO)c(C(C)=O)c4)nn23)cc1OC [Example 16, 1-[5-[3-(3,4-Dimethoxy-phenyl)-imidazo[1,2-b]pyridazin-6-yl]-2-(2-hydroxy-ethoxy)-phenyl]-ethanone]
53	COc1cc(-c2ccc3ncc(-c4ccc(C(N)=O)cc4)n3n2)ccc1OCCCN [Example 17, 4-{6-[4-(3-Amino-propoxy)-3-methoxy-phenyl]-imidazo[1,2-b]pyridazin-3-yl}-benzamide]
120	COc1ccc(-c2ccc3ncc(-c4ccc(-c5ccoc5)cc4)n3n2)cc1OC [Example 19, 6-(3,4-Dimethoxy-phenyl)-3-(4-furan-3-yl-phenyl)-imidazo[1,2-b]pyridazine]
122	COc1ccc(-c2ccc3ncc(-c4ccc(-c5ccc[nH]5)cc4)n3n2)cc1OC [Example 20, 6-(3,4-Dimethoxy-phenyl)-3-[4-(1H-pyrrol-2-yl)-phenyl]-imidazo[1,2-b]pyridazine]
292	COc1cc(-c2cnc3ccc(-c4ccc(C(N)=O)cc4)nn23)ccc1OCCCNC(=O)OC(C)(C)C [Example 21, (3-{4-[6-(4-Carbamoyl-phenyl)-imidazo[1,2-b]pyridazin-3-yl]-2-methoxy-phenoxy}-propyl)-carbamic acid tert-butyl ester]
